20 compounds from PubChem BioAssay AID248 (DTP/NCI, 2004) can be followed below.

The assay deals with L1210 leukemia ip in BDF1 mice, survival T/C. Nature of the assay: NCI In Vivo Anticancer Drug Screen. Data for tumor model L1210 Leukemia (intraperitoneal) in B6D2F1 (BDF1) mice. The conditions noted are these: endpoint: mean survival time, higher = longer survival. In outline:
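Mice bearing the transplanted tumor received compound or vehicle. Survival of the treated group was divided by that of the vehicle-treated control group to give the ratio.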

The mark [1] stands for this setting: dose: 100.0 mg/kg/injection, schedule: Q01DX009 (ip), vehicle: saline.
[2] abbreviates: dose: 200.0 mg/kg/injection, schedule: Q01DX009 (ip), vehicle: saline.
Where [3] appears, read: dose: 400.0 mg/kg/injection, schedule: Q01DX009 (ip), vehicle: saline.
Where [4] appears, read: dose: 100.0 mg/kg/injection, schedule: Q01DX009 (ip), vehicle: Klucel (hydroxypropylcellulose) (HPC).
The mark [5] stands for this setting: dose: 100.0 mg/kg/injection, schedule: Q04DX003 (ip), vehicle: Klucel (hydroxypropylcellulose) (HPC).
[6] abbreviates: dose: 200.0 mg/kg/injection, schedule: Q01DX009 (ip), vehicle: Klucel (hydroxypropylcellulose) (HPC).
Setting [7] is: dose: 200.0 mg/kg/injection, schedule: Q04DX003 (ip), vehicle: Klucel (hydroxypropylcellulose) (HPC).
Where [8] appears, read: dose: 400.0 mg/kg/injection, schedule: Q01DX009 (ip), vehicle: Klucel (hydroxypropylcellulose) (HPC).
Setting [9] is: dose: 400.0 mg/kg/injection, schedule: Q04DX003 (ip), vehicle: Klucel (hydroxypropylcellulose) (HPC).
The mark [10] stands for this setting: dose: 100.0 mg/kg/injection, schedule: Q01DX001 (ip), vehicle: saline with Tween-80.
Setting [11] is: dose: 100.0 mg/kg/injection, schedule: Q04DX003 (ip), vehicle: saline with Tween-80.
Where [12] appears, read: dose: 200.0 mg/kg/injection, schedule: Q01DX001 (ip), vehicle: saline with Tween-80.
[13] abbreviates: dose: 200.0 mg/kg/injection, schedule: Q01DX009 (ip), vehicle: saline with Tween-80.
The mark [14] stands for this setting: dose: 200.0 mg/kg/injection, schedule: Q04DX003 (ip), vehicle: saline with Tween-80.
[15] abbreviates: dose: 400.0 mg/kg/injection, schedule: Q01DX001 (ip), vehicle: saline with Tween-80.
[16] abbreviates: dose: 400.0 mg/kg/injection, schedule: Q04DX003 (ip), vehicle: saline with Tween-80.
[17] abbreviates: dose: 100.0 mg/kg/injection, schedule: Q01DX009 (ip), vehicle: saline with Tween-80.

Several values for one entry are separate records, joined by “and”; a condition that tells them apart may be missing. Equal entries are not always repeated. Toxic doses and inconclusive results are not listed.

With `N#CCC(=O)NCc1ccncc1`, the T/C was 95 % of control (dose: 100.0 mg/kg/injection, schedule: Q01DX001 (ip), vehicle: carboxymethylcellulose (CMC)); 95 % of control (dose: 100.0 mg/kg/injection, schedule: Q04DX003 (ip), vehicle: carboxymethylcellulose (CMC)); 106 % of control (dose: 200.0 mg/kg/injection, schedule: Q01DX001 (ip), vehicle: carboxymethylcellulose (CMC)); 96 % of control (dose: 200.0 mg/kg/injection, schedule: Q04DX003 (ip), vehicle: carboxymethylcellulose (CMC)); 108 % of control (dose: 400.0 mg/kg/injection, schedule: Q01DX001 (ip), vehicle: carboxymethylcellulose (CMC)); 91 % of control (dose: 400.0 mg/kg/injection, schedule: Q04DX003 (ip), vehicle: carboxymethylcellulose (CMC)).
Consider `O=C1NCC2C3CCC(O3)C12` (stereo not given), for which the T/C reads like this: (dose: 50.0 mg/kg/injection, schedule: Q04DX002 (ip), vehicle: saline) 101 % of control; (dose: 100.0 mg/kg/injection, schedule: Q04DX002 (ip), vehicle: saline) 97 % of control and 103 % of control; (dose: 200.0 mg/kg/injection, schedule: Q04DX002 (ip), vehicle: saline) 105 % of control; (dose: 400.0 mg/kg/injection, schedule: Q04DX002 (ip), vehicle: saline) 97 % of control and 92 % of control.
On to `COC(=O)C1C2C3CC(C4CC43)C12` (stereo not given), for which the T/C reads like this: under setting [1], 92 % of control; (dose: 100.0 mg/kg/injection, schedule: Q04DX003 (ip), vehicle: saline) 93 % of control; under setting [2], 92 % of control; (dose: 200.0 mg/kg/injection, schedule: Q04DX003 (ip), vehicle: saline) 107 % of control; under setting [3], 96 % of control; (dose: 400.0 mg/kg/injection, schedule: Q04DX003 (ip), vehicle: saline) 96 % of control.
As for `CCCCCCCCCCOC(=O)COc1ccc(C(C)(C)C)cc1`, the T/C is 92 % of control under setting [1] and 98 % of control under setting [2].
For `CC(=O)C(=O)C1=C2CCCN2CCc2cc3c(cc21)OCO3`, the T/C is 111 % of control (dose: 100.0 mg/kg/injection, schedule: Q04DX002 (ip), vehicle: Klucel (hydroxypropylcellulose) (HPC)); 114 % of control (dose: 200.0 mg/kg/injection, schedule: Q04DX002 (ip), vehicle: Klucel (hydroxypropylcellulose) (HPC)); 118 % of control (dose: 400.0 mg/kg/injection, schedule: Q04DX002 (ip), vehicle: Klucel (hydroxypropylcellulose) (HPC)).
As to `CC(C)OC(=O)Nc1ccc(-c2ccc(NC(=O)OC(C)C)cc2)cc1`, the T/C under setting [4] was 95 % of control; the T/C under setting [5] is 91 % of control; the T/C under setting [6] was 97 % of control; the T/C under setting [7] was 91 % of control; the T/C under setting [8] was 97 % of control; the T/C under setting [9] is 98 % of control.
As for `CNC(=O)Oc1ccc(-c2ccccc2)cc1Cl`, the T/C runs as follows: (dose: 25.0 mg/kg/injection, schedule: Q01DX009 (ip), vehicle: saline with Tween-80) 103 % of control and 106 % of control; (dose: 50.0 mg/kg/injection, schedule: Q01DX009 (ip), vehicle: saline with Tween-80) 94 % of control and 111 % of control; under setting [10], 101 % of control; (dose: 100.0 mg/kg/injection, schedule: Q04DX002 (ip), vehicle: saline with Tween-80) 93 % of control and 101 % of control (2×); under setting [11], 98 % of control; under setting [12], 93 % of control. Also, the T/C by setting is: under setting [13], 94 % of control; (dose: 200.0 mg/kg/injection, schedule: Q04DX002 (ip), vehicle: saline with Tween-80) 96 % of control and 97 % of control and 100 % of control; under setting [14], 95 % of control; under setting [15], 104 % of control; (dose: 400.0 mg/kg/injection, schedule: Q04DX002 (ip), vehicle: saline with Tween-80) 103 % of control and 107 % of control and 113 % of control; under setting [16], 98 % of control.
In the case of `N#CC(/C=C/c1ccccc1)Nc1ccccc1N` (stereo not given), the T/C under setting [10] was 91 % of control, the T/C under setting [12] is 94 % of control and the T/C under setting [15] is 86 % of control.
Take `CC(=O)Oc1c(Br)c(-c2cc([N+](=O)[O-])c(C)c([N+](=O)[O-])c2C)c(OC(C)=O)c(Br)c1-c1cc([N+](=O)[O-])c(C)c([N+](=O)[O-])c1C`: the T/C is 104 % of control under setting [17]; 91 % of control under setting [13]; 88 % of control (dose: 400.0 mg/kg/injection, schedule: Q01DX009 (ip), vehicle: saline with Tween-80).
Take `CCCNC(=O)c1cccc(-c2cccc(C(=O)NCCC)c2)c1`: the T/C (dose: 200.0 mg/kg/injection, schedule: Q01DX001 (ip), vehicle: other) is 93 % of control.
Consider `CCC(C)OC(=O)Nc1cccc(OC(=O)NC)c1` (stereo not given), for which the T/C is 104 % of control under setting [11], 94 % of control under setting [14] and 97 % of control under setting [16].
Regarding `CN(N=O)C(=O)Nc1ccc(C(=O)O)cc1`, the T/C by setting is: (dose: 12.0 mg/kg/injection, schedule: Q01DX Z (ip), vehicle: carboxymethylcellulose (CMC)) 183 % of control; (dose: 17.6 mg/kg/injection, schedule: Q01DX Z (ip), vehicle: carboxymethylcellulose (CMC)) 190 % of control; (dose: 26.4 mg/kg/injection, schedule: Q01DX Z (ip), vehicle: carboxymethylcellulose (CMC)) 209 % of control; (dose: 40.0 mg/kg/injection, schedule: Q01DX Z (ip), vehicle: carboxymethylcellulose (CMC)) 188 % of control and 218 % of control; (dose: 60.0 mg/kg/injection, schedule: Q01DX Z (ip), vehicle: carboxymethylcellulose (CMC)) 118 % of control and 87 % of control; (dose: 80.0 mg/kg/injection, schedule: Q01DX Z (ip), vehicle: carboxymethylcellulose (CMC)) 98 % of control.
As to `CS(=O)(=O)OC[C@@H]1C2C=CC(C2)[C@@H]1COS(C)(=O)=O`, the T/C runs as follows: (dose: 50.0 mg/kg/injection, schedule: Q01DX009 (ip), vehicle: Klucel (hydroxypropylcellulose) (HPC)) 107 % of control; under setting [4], 100 % of control; under setting [5], 98 % of control; under setting [6], 104 % of control; under setting [7], 94 % of control; under setting [9], 107 % of control.
With `COc1ccccc1N=Nc1c(O)n(-c2ccccc2OC)c(=S)n(-c2ccccc2)c1=O`, the T/C (dose: 100.0 mg/kg/injection, schedule: Q01DX001 (ip), vehicle: Klucel (hydroxypropylcellulose) (HPC)) is 96 % of control and the T/C (dose: 200.0 mg/kg/injection, schedule: Q01DX001 (ip), vehicle: Klucel (hydroxypropylcellulose) (HPC)) was 94 % of control.
`Cc1ccc(C(=O)CN(Cc2ccccc2)Cc2ccccc2)cc1`: the T/C by setting is: under setting [4], 103 % of control; under setting [5], 98 % of control; under setting [6], 97 % of control; under setting [7], 92 % of control; under setting [8], 92 % of control; under setting [9], 91 % of control.
With `Cc1cc2ncn(CC(=O)NN)c2cc1C`, the T/C by setting is: under setting [17], 86 % of control; under setting [11], 92 % of control; under setting [14], 95 % of control; under setting [16], 92 % of control.
Consider `OC1CSC2=[N+]1CCS2` (stereo not given), for which the T/C reads like this: (dose: 75.0 mg/kg/injection, schedule: Q01DX001 (ip), vehicle: saline) 98 % of control; (dose: 150.0 mg/kg/injection, schedule: Q01DX001 (ip), vehicle: saline) 112 % of control; (dose: 300.0 mg/kg/injection, schedule: Q01DX001 (ip), vehicle: saline) 111 % of control.
Consider `Cc1cccc[n+]1Cc1ccccc1`, for which the T/C reads like this: (dose: 9.38 mg/kg/injection, schedule: Q01DX001 (ip), vehicle: saline) 100 % of control; (dose: 18.75 mg/kg/injection, schedule: Q01DX001 (ip), vehicle: saline) 97 % of control; (dose: 37.5 mg/kg/injection, schedule: Q01DX001 (ip), vehicle: saline) 101 % of control.
On to `O=C(O)CN(Cc1ccccc1)Cc1ccccc1`, for which the T/C is, setting by setting: under setting [5], 95 % of control; under setting [7], 98 % of control; under setting [9], 98 % of control.
As to `Nc1cccc2ccc(S(=O)(=O)O)cc12`, the T/C reads like this: under setting [1], 106 % of control; under setting [2], 97 % of control; under setting [3], 101 % of control.
